Where a name gives a salt, the structure may show the parent alone.
Tests used:
[1] = Measurement of brain exposure; type: in vivo; settings: male, obese Zucker fa/fa, rat, brain homogenate, oral; 10 mg/kg p.o.; brains collected at 2 hours post-dosing; read-out: brain homogenate exposure level
Protocol: Measurement of Brain Exposure
Male obese Zucker fa/fa rats are administered compounds, typically at 10 mg/kg p.o., and then brains are collected at 2 hours post-dosing for determination of brain concentration. Brains are weighed and homogenized with 4 mL 10 mM ammonium acetate buffer (pH 3), and the brain tissue homogenate samples are extracted via protein precipitation with acetonitrile. Samples are vortexed, centrifuged, and analyzed by liquid chromatography utilizing mass spectrometer selective detection (LC/MS/MS) using the heated nebulizer interface. Samples are quantitated using weighted (1/x^2) linear internal standard calibration curve.

[2] = test system: obese Zucker fa/fa rats; test: Chronic feeding assay (body weight, food and water consumption); type: in vivo, rat; settings: once per day at 10 mg/kg p.o.; day 6 of treatment
Text: Evaluation of Compound's Efficacy on the Reduction of Body Weight and Food and Water Consumption in Obese Zucker fa/fa Rats
The purpose of this protocol is to determine the effect of chronic administration of an unknown compound on body weight and food and water consumption in obese Zucker fa/fa rats. Obese Zucker fa/fa rats are frequently used in the determination of compound efficacy in the reduction of body weight. This animal model has been successfully used in the identification and characterization of the efficacy profile of compounds that are or have been used in the management of body weight in obese humans (see, e.g., Al-Barazanji et al., Obes Res. 8:317–323, 2000; Assimacopoulos-Jeannet et al., Am. J. Physiol. 260(2 Pt 2):R278–283, 1991; Dryden et al., Horm. Metab. Res. 31:363–366, 1999; Edwards and Stevens, Pharmacol. Biochem. Behav. 47:865–872, 1994; Grinker et al., Pharmacol. Biochem. Behav. 12:265–275, 1980).
A typical study includes 60–80 male Zucker fa/fa (n=10/treatment group) with an average body weight of approximately 550 g. […]
Animals are orally gavaged (2 mL/kg) daily before the dark phase of the LD/cycle for a pre-determined number of days (typically 6–14 days) with their assigned dose/compound. At this time, body weight, food and water consumption are measured. On the final day, animals are euthanized by CO2 inhalation, and the body weight is measured.

concentration at 2 h [1] [nM] | SMILES | increase in body weight from baseline [2]
> 500 | O[C@@H]1CCCC[C@H]1N1CCc2c(cc(-c3ccc(Cl)cc3)n2-c2ccccc2Cl)C1 (relative stereo) [entry 18, trans-2-[1-(2-chlorophenyl)-2-(4-chlorophenyl)-1,4,6,7-tetrahydro-5H-pyrrolo[3,2-c]pyridin-5-yl]cyclohexanol hydrochloride] | –
– | COc1ccc(-c2c(C)c3c(n2-c2ccccc2Cl)CCN(N2CCCCC2)C3=O)cc1.Cl [entry 189, 1-(2-chlorophenyl)-2-(4-methoxyphenyl)-3-methyl-5-(1-piperidinyl)-1,5,6,7-tetrahydro-4H-pyrrolo[3,2-c]pyridin-4-one hydrochloride] | no increase in body weight from baseline

From US7071207B2, “Preparation and use of 1,5,6,7-tetrahydropyrrolo[3,2-c]pyridine derivatives for treatment of obesity” (Bayer Pharmaceuticals Corporation, priority 2001, dated 2006)
